In patent US6977262B2, “Dihydropyrazolopyridine compounds and pharmaceutical use thereof” (Mitsubishi Pharma Corporation, priority 2001, dated 2005):

Structure (SMILES)	melting point
CCCC1=C(C#N)C(c2cccc3ccccc23)c2c[nH]nc2N1 (stereo not shown) [Example 135, 5-Cyano-4,7-dihydro-4-(naphthalen-1-yl)-6-propyl-2H-pyrazolo[3,4-b]pyridine]	263 °C
N#CC1=C(CO)Nc2n[nH]cc2C1c1cccc2nonc12 (stereo not shown) [Example 257, 4-(2,1,3-Benzoxadiazol-4-yl)-5-cyano-4,7-dihydro-6-hydroxymethyl-2H-pyrazolo[3,4-b]pyridine]	215 to 220 °C (dec.)
N#CC1=C(c2cccs2)Nc2n[nH]cc2C1c1cccc(C#N)c1Br (stereo not shown) [Example 278, 4-(2-Bromo-3-cyanophenyl)-5-cyano-4,7-dihydro-6-(thiophen-2-yl)-2H-pyrazolo[3,4-b]pyridine]	> 280 °C
CCC1=C(C#N)C(c2ccccc2Br)c2c[nH]nc2N1 (stereo not shown) [Example 199, 4-(2-Bromophenyl)-5-cyano-6-ethyl-4,7-dihydro-2H-pyrazolo[3,4-b]pyridine]	250 to 253 °C (dec.)
CCC1=C(C#N)C(c2ccccc2Cl)c2c[nH]nc2N1 (stereo not shown) [Example 197, 4-(2-Chlorophenyl)-5-cyano-6-ethyl-4,7-dihydro-2H-pyrazolo[3,4-b]pyridine]	> 300 °C
CCCC1=C(C#N)C(c2ccccc2OC)c2c[nH]nc2N1 (stereo not shown) [Example 129, 5-Cyano-4,7-dihydro-4-(2-methoxyphenyl)-6-propyl-2H-pyrazolo[3,4-b]pyridine]	203 °C
COc1ccccc1C1=C(C#N)C(c2ccccc2OC)c2c[nH]nc2N1 (stereo not shown) [Example 151, 5-Cyano-4,7-dihydro-4,6-bis-(2-methoxyphenyl)-2H-pyrazolo[3,4-b]pyridine]	220 °C
CCCC1=C(C(=O)OCC)C(c2ccccc2OC2CCCC2)c2c[nH]nc2N1 (stereo not shown) [Example 37, Ethyl 4-(2-cyclopentyloxyphenyl)-4,7-dihydro-6-propyl-2H-pyrazolo[3,4-b]pyridine-5-carboxylate]	195 °C
CCCC1=C(C#N)C(c2ccccc2Cl)c2cnn(C(=O)OC(C)(C)C)c2N1 (stereo not shown) [Example 281, 1-tert-Butoxycarbonyl-4-(2-chlorophenyl)-5-cyano-4,7-dihydro-6-propyl-1 H-pyrazolo[3,4-b]pyridine]	98 to 102 °C
CC(C)(C)OC(=O)N1CCCC(C2=C(C#N)C(c3cccc4nonc34)c3c[nH]nc3N2)C1 (stereo not shown) [Example 1004, 4-(2,1,3-Benzoxadiazol-4-yl)-6-(1-t-butoxycarbonylpiperidin-3-yl)-5-cyano-4,7-dihydro-2H-pyrazolo[3,4-b]pyridine]	229 °C
N#CC1=C(c2ccsc2)Nc2n[nH]cc2C1c1cccc2nonc12 (stereo not shown) [Example 174, 4-(2,1,3-Benzoxadiazol-4-yl)-5-cyano-4,7-dihydro-6-(thiophen-3-yl)-2H-pyrazolo[3,4-b]pyridine]	242 °C
CC1=C(C(=O)N(C)C)C(c2ccccc2Cl)c2c[nH]nc2N1 (stereo not shown) [Example 8, 4-(2-Chlorophenyl)-5-dimethylaminocarbonyl-4,7-dihydro-6-methyl-2H-pyrazolo[3,4-b]pyridine]	229 °C
CCCC1=C(C(=O)OCC)C(c2c(OC)ccc3ccccc23)c2c[nH]nc2N1 (stereo not shown) [Example 68, Ethyl 4,7-dihydro-4-(2-methoxynaphthalen-1-yl)-6-propyl-2H-pyrazolo[3,4-b]pyridine-5-carboxylate]	188 to 191 °C
N#CC1=C(c2ccccc2)Nc2n[nH]cc2C1c1cccc(C(F)(F)F)c1Cl (stereo not shown) [Example 202, 4-(2-Chloro-3-trifluoromethylphenyl)-5-cyano-4,7-dihydro-6-phenyl-2H-pyrazolo[3,4-b]pyridine]	> 250 °C
CCCC1=C(C(=O)OCC)C(c2ccc3c(c2)OCCO3)c2c[nH]nc2N1.O=C(O)/C=C\C(=O)O (stereo not shown) [Example 80, Ethyl 4-(2,3-dihydro-1,4-benzodioxin-6-yl)-4,7-dihydro-6-propyl-2H-pyrazolo[3,4-b]pyridine-5-carboxylate maleate]	147 to 149 °C
CC(C)(C)OC(=O)N1CC=C(C2=C(C#N)C(c3cccc4nonc34)c3c[nH]nc3N2)CC1 (stereo not shown) [Example 1012, 4-(2,1,3-Benzoxadiazol-4-yl)-6-(1-t-butoxycarbonyl-1,2,3,6-tetrahydropyridin-4-yl)-5-cyano-4,7-dihydro-2H-pyrazolo[3,4-b]pyridine]	222 °C
CCCC1=C(C(=O)OCC)C(c2ccccc2[S+](C)[O-])c2c[nH]nc2N1 (stereo not shown) [Example 40, Ethyl 4,7-dihydro-4-(2-methylsulfinylphenyl)-6-propyl-2H-pyrazolo[3,4-b]pyridine-5-carboxylate]	216 °C

The remaining lines, values ahead:

melting point	Structure (SMILES)
252 °C	N#CC1=C(C2CCCCCC2)Nc2n[nH]cc2C1c1cccc(C#N)c1Br (stereo not shown) [Example 326, 4-(2-Bromo-3-cyanophenyl)-5-cyano-6-cycloheptyl-4,7-dihydro-2H-pyrazolo[3,4-b]pyridine]
236 °C	N#CC1=C(c2ccncc2)Nc2n[nH]cc2C1c1cccc2nonc12 (stereo not shown) [Example 166, 4-(2,1,3-Benzoxadiazol-4-yl)-5-cyano-4,7-dihydro-6-(pyridin-4-yl)-2H-pyrazolo[3,4-b]pyridine]
136 to 138 °C	CCCC1=C(C(=O)OCC)C(c2ccc3ccccc3c2)c2c[nH]nc2N1.O=C(O)/C=C\C(=O)O (stereo not shown) [Example 67, Ethyl 4,7-dihydro-4-(naphthalen-2-yl)-6-propyl-2H-pyrazolo[3,4-b]pyridine-5-carboxylate maleate]
202 °C	CCCC1=C(C(=O)OCC)C(c2c(Cl)cccc2Cl)c2c[nH]nc2N1 (stereo not shown) [Example 55, Ethyl 4-(2,6-dichlorophenyl)-4,7-dihydro-6-propyl-2H-pyrazolo[3,4-b]pyridine-5-carboxylate]
228 °C	CCOC(=O)C1=C(C)Nc2n[nH]cc2C1c1cccc2nonc12 (stereo not shown) [Example 113, Ethyl 4-(2,1,3-benzoxadiazol-4-yl)-4,7-dihydro-6-methyl-2H-pyrazolo[3,4-b]pyridine-5-carboxylate]
278 °C	N#CC1=C(C2CCC2)Nc2n[nH]cc2C1c1cccc(C#N)c1Br (stereo not shown) [Example 321, 4-(2-Bromo-3-cyanophenyl)-5-cyano-6-cyclobutyl-4,7-dihydro-2H-pyrazolo[3,4-b]pyridine]
192 °C	COc1cccc(C2=C(C#N)C(c3ccccc3OC)c3c[nH]nc3N2)c1 (stereo not shown) [Example 152, 5-Cyano-4,7-dihydro-4-(2-methoxyphenyl)-6-(3-methoxyphenyl)-2H-pyrazolo[3,4-b]pyridine]
230 °C	CCCC1=C(C#N)C(c2cccc3c2OCCC3)c2c[nH]nc2N1 (stereo not shown) [Example 136, 5-Cyano-4-(3,4-dihydro-2H-benzopyran-8-yl)-4,7-dihydro-6-propyl-2H-pyrazolo[3,4-b]pyridine]
125 °C	CCCC1=C(C(=O)OCC)C(c2sccc2C)c2c[nH]nc2N1 (stereo not shown) [Example 63, Ethyl 4,7-dihydro-4-(3-methylthiophen-2-yl)-6-propyl-2H-pyrazolo[3,4-b]pyridine-5-carboxylate]
205 °C	CCCOc1ccccc1C1C(C(=O)OCC)=C(CCC)Nc2n[nH]cc21 (stereo not shown) [Example 34, Ethyl 4,7-dihydro-4-(2-propoxyphenyl)-6-propyl-2H-pyrazolo[3,4-b]pyridine-5-carboxylate]
188 °C	N#CC1=C(C2CCC2)Nc2n[nH]cc2C1c1ccccc1Cl (stereo not shown) [Example 313, 4-(2-Chlorophenyl)-5-cyano-6-cyclobutyl-4,7-dihydro-2H-pyrazolo[3,4-b]pyridine]
